# Patent US11439639B2, “Pyrazine-containing compound” (CalciMedica, Inc., priority 2015, dated 2022)
# How the values were obtained:
# [1] = Compound levels in the pancreas after i.p. injection; format: in vivo, mouse; conditions: as a function of dose
# [2] = tested on: T cells in bulk human PBMCs; assay: Cytokine release from anti-CD3/anti-CD28 stimulated human PBMCs (Luminex); format: cell-based; conditions: plate-bound anti-CD3/anti-CD28, 10% serum, 48 hrs
# Description: Compound I was tested for its inhibitory effect on a number of cytokines. Cytokines INF-gamma, IL-4, and IL-4 receptors of which are expressed on Acinar cells, cytokines IL-lbeta, IL-6, IL-10 and TNF-alpha, expressed in Acinar cells, and IL-2 and IL-7, cytokines important in T-cell function, were tested for an inhibitory effect of the CRAC inhibitor Compound I. T cells in bulk human PBMCs were stimulated with plate-bound anti-CD3/anti-CD28 in buffer +10% serum for 48 hrs. Released cytokines were measured by Luminex at Millipore.
# [3] = tested on: Mouse PACs; assay: CCK-induced Ca2+ entry in mouse PACs; format: cell-based; conditions: CCK 10 nM, then 1.8 mM Calcium; pretreatment with inhibitor
# Description: Mouse PACs were monitored for their Calcium uptake upon treatment with CCK at 10 nM. Cells were treated with CCK, and then provided with 1.8 mM Calcium and Calcium reuptake was monitored. […] Compound I pretreatment reduced Calcium re-uptake to near 0% of the control. GSK-7975A reduced calcium reuptake to about 30% of the control.
# [4] = tested on: Mouse PACs; assay: CPA-induced store-operated Ca2+ entry (calcium reuptake) in mouse PACs; format: cell-based; conditions: CPA-treated mouse PACs, excess Calcium given 15 minutes after release
# Description: Mouse PACs were isolated and assayed for the effect of CRAC inhibitors on calcium re-uptake into the ER. Cells were treated with cyclopiazonic acid (CPA) alone (FIG. 4A) or in combination with the CRAC inhibitor Compound I (FIG. 4B) to activate CRAC channels to release Ca^2+. At 15 minutes following Calcium release, cells were provided with an excess of Calcium and monitored for Calcium uptake into the ER.
# [5] = tested on: caerulein-induced pathology in the mouse pancreas; assay: Mouse caerulein model of acute pancreatitis, prophylactic i.p. dosing, pancreas pathology; format: in vivo; conditions: C57B6 mice
# Description: Mice were treated with a CRAC inhibitor or a vehicle prophylactically, and then challenged with CCK to trigger acute pancreatitis.
# [6] = tested on: Mouse Acinar cells; assay: TLCS-induced amylase release in mouse acinar cells; format: cell-based; conditions: TLCS-treated mouse acinar cells, compared with EGTA
# Description: Amylase release from PACs has an ER calcium-dependent and a CRAC/cytosolic calcium-dependent component. The calcium dependent component is blocked by introduction of the divalent cation chelating agent EGTA. Mouse Acinar cells were treated with TLCS and either vehicle, EGTA, or a CRAC inhibitor such as Compound I, GSK-7975A or Compound II and monitored for Amylase release. It is observed that CRAC inhibitors mimicked EGTA in their effect on Amylase release.
# [7] = tested on: Mouse PACs; assay: Rate of store-operated Calcium entry in mouse PACs, dose dependence; format: cell-based; design: block of reuptake: dose or concentration left out as unconfirmed; conditions: for activity at 0.7 µM: Mus musculus, 700 nM of inhibitor, read-out: rate of store-operated Calcium entry, % of control levels
# Description: Mouse PACs were treated with CRAC inhibitors Compound I (FIG. 5A) or GSK-7975A (FIG. 5B) and monitored for their rate of Calcium uptake. […] Compound I blocks 100% of reuptake […].
# [8] = tested on: Mouse PACs; assay: TLCS-induced Ca2+ entry in mouse PACs (cytosolic calcium, F345/F380); format: cell-based; conditions: 500 μM TLCS; Compound I at 1 or 3 μM
# Description: Mouse PACs were treated with 500 μM TLCS and either 0, 1μM or 3 μM of the CRAC inhibitor Compound I. Cytosolic Calcium levels (measured as F345/ F380 ratios) were measured for each treatment. TLCS releases Ca^2+ from intracellular stores (not shown), initiating SOCE. […] The results are depicted in FIG. 11.
# [9] = tested on: murine T cells; assay: Store-operated Ca2+ entry in murine T cells under Th1-, Th2-, Th17-polarizing conditions; format: cell-based; conditions: 1 μM Compound I, Th17 versus naive
# Description: Naive and stimulated murine T cells cultured under Th1-, Th2-, and Th17-polarizing conditions are treated with either DMSO, DMSO plus 500 μM TLCS, or DMSO plus 500 μM TLCS plus 1 μM of the CRAC inhibitor Compound I. Store-operated Ca^2+ entry (SOCE) is quantified in each treatment.
# [10] = tested on: Th17 cells; assay: Cytokine production by Th1, Th2 and Th17 cells; format: cell-based, murine; conditions: compared with IFN-γ and IL-4 production by Th1 and Th2 cells
# [11] = tested on: Mouse Pancreatic Acinar Cells (PACs); assay: TLCS-induced necrosis in mouse pancreatic acinar cells (propidium iodide uptake); format: cell-based
# Description: (§1) Mouse Pancreatic Acinar Cells (PACs) were extracted and incubated with either a carrier (control) or with natural bile acid TLCS (taurolithocholic acid 3-sulfate) in the absence or presence of GSK-7975A. Cells were contacted with propidium iodide to assay for cell necrosis. TLCS treatment to individual cells in vitro mimics the effect of a gall stone or other blockage in pancreatic secretion in vivo.
# Mouse PACs were treated with either DMSO, DMSO plus 500 μM TLCS, or DMSO plus 500 μM TLCS plus 1 μM of the CRAC inhibitor Compound I. Cell necrosis was measured as % PI uptake. The CRAC inhibitor Compound I inhibits TLCS-induced necrosis in mouse PACs.
# [12] = tested on: Candid-1 JUNV; format: cell-based, Junin virus; conditions: VeroE6 cells; 1, 10, 25, 50 μM Compound I
# [13] = tested on: caerulein-induced pathology in the pancreas; assay: Therapeutic/prophylactic mouse caerulein model, histopathology scores; format: in vivo
# Description: Seven hourly i.p. injections of caerulein were given to induce pancreatitis, with animals sacrificed 8 hr after the 1st injection. Compound I was administered i.p. either 30 min before the 1st caerulein injection (prophylactic), or after the 3rd injection (therapeutic). CsA was administered p.o. on the same schedule as Compound I. The results are depicted in FIG. 10. Histopathology scores were measured in light of observation of Acinar cell degeneration, coagulation necrosis, and inflammation and edema measurements. Compound I produced a significant 35% reduction in caerulein-induced pathology in the pancreas when administered after the 3rd caerulein injection, consistent with efficacy in a therapeutic mode.
# [14] = tested on: caerulein-induced acute pancreatitis; assay: Serum amylase and serum lipase in mouse caerulein model of acute pancreatitis; format: in vivo; conditions: doses up to 20 mg/kg
# Description: Mice were either untreated (Normal), treated with CCK only (vehicle), or treated with CCK in combination with CsA or a CRAC inhibitor at the indicated dose. Serum amylase activity (FIG. 9A) and Serum Lipase activity (FIG. 9B) (IU/L) were measured.
# [15] = target: Orai2/STIM1 channels (Homo sapiens, UniProt Q96SN7); assay: CRAC channel inhibition, Orai2/STIM1; format: cell-based
# Description: (§2) Compound I and GSK-7975A were assayed for their inhibitory effect on CRAC channels. Channels comprising Orai1/STIM1 and Orai2/STIM1 were assayed.
# [16] = target: Orai1/STIM1 channels (Homo sapiens, UniProt Q96D31); assay: CRAC channel inhibition, Orai1/STIM1; format: cell-based; conditions: for IC50: Orai1/STIM1 channels
# Description: as §2
# [17] = tested on: Mouse acute pancreatitis models; assay: Mouse acute pancreatitis models (Caerulein, TLCS, FAEE), pancreas histopathology; format: in vivo; conditions: TLCS or FAEE model, doses giving tissue levels 10× or 40× the IC50, more pronounced at 40×
# From the text: Mouse acute pancreatitis models were used to evaluate the effect of a CRAC inhibitor on pancreas histopathological progression. Caerulein is used to hyper-stimulate CCK receptors in the normal Calcium signaling pathway in the mouse pancreas. TLCS is used to induce acute pancreatitis through simulation of an excess of bile acid, as would be experienced in a gallstone induced acute pancreatitis. Fatty acid ethyl esters (FAEE) are used to simulate alcohol-induced acute pancreatitis. Mice were treated with the acute pancreatitis agent (Caerulin, FIG. 2A, TLCS, FIG. 2B or FAEE, FIG. 2C) alone or with the CRAC inhibitor GSK-7975A at either 10× or 40× the IC50 of the CRAC inhibitor.
# [18] = tested on: Human PACs; assay: TLCS-induced necrosis in human pancreatic acinar cells (propidium iodide); format: cell-based; conditions: TLCS plus 10 μM GSK-7975A, TLCS alone about 45%, no TLCS about 23%
# Description: as §1, with “Human PACs” for “Mouse Pancreatic Acinar Cells (PACs)”, “TLCS” for “TLCS (taurolithocholic acid 3-sulfate)”
# Sequence of Orai1/STIM1 channels (Q96D31 whole entry): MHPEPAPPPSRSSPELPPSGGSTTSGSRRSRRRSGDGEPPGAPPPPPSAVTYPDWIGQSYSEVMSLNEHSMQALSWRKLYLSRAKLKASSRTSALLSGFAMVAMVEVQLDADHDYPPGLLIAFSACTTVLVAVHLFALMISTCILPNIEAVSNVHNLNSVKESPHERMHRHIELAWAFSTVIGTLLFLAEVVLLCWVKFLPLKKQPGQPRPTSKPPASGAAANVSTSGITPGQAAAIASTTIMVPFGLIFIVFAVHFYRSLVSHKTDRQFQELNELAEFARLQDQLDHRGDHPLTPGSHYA
# Sequence of Orai1/STIM1 channels (Q13586 23-685 partner): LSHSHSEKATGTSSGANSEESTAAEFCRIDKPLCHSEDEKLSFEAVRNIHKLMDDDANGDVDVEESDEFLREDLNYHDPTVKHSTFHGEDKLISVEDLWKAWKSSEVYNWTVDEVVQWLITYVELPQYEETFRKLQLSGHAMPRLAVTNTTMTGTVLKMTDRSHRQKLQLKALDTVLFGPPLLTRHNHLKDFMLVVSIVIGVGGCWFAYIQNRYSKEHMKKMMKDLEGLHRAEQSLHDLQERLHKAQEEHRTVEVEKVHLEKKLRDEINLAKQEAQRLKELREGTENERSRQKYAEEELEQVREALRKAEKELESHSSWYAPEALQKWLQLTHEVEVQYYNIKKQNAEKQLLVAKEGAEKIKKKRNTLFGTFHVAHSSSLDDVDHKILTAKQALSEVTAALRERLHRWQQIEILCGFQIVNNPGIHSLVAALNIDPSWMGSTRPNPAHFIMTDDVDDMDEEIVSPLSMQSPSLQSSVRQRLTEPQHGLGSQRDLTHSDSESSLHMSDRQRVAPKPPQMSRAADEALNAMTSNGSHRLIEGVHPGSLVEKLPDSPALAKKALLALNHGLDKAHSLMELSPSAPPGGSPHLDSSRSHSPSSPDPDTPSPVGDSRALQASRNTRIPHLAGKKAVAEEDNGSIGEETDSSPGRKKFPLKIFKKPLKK
# Sequence of Orai2/STIM1 channels (Q96SN7 whole entry): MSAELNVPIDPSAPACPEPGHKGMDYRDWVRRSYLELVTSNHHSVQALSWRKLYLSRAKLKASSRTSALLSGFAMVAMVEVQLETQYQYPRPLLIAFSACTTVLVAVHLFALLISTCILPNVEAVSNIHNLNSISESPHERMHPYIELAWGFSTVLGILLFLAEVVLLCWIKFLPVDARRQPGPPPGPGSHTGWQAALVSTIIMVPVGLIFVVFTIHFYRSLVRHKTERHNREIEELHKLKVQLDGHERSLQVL
# Sequence of Orai2/STIM1 channels (Q13586 23-685 partner): as the sequence (Q13586 23-685 partner) above
smiles,measurement,setting,value
"Cc1cccc(F)c1C(=O)Nc1cnc(-c2cc3c(cc2Cl)OC(F)(F)O3)cn1 [Compound I, N-(5-(6-chloro-2,2-difluorobenzo[d][1,3]dioxol-5-yl)pyrazin-2-yl)-2-fluoro-6-methylbenzamide]",Compound I levels in the pancreas,[1],dose-proportional increase
same,release of multiple cytokines,[2],potently inhibits
same,"Calcium re-uptake, % of the control",[3],~0%
same,reuptake of Calcium,[4],do not demonstrate reuptake of Calcium
same,caerulein-induced pathology in the mouse pancreas,[5],significant and dose-dependent reductions
same,effect on Amylase release,[6],mimicked EGTA
same,block of reuptake,[7],100%
same,activity at 0.7 µM,[7],50%
same,TLCS-induced Ca2+ entry,[8],completely blocked
same,Store-operated Ca2+ entry (SOCE),[9],blocks SOCE stronger in differentiated Th17 cells
same,IL-17A production by Th17 cells,[10],more severely affected
same,TLCS-induced necrosis (% PI uptake),[11]; 500 μM TLCS plus 1 μM Compound I,inhibits
same,JUNV virus production (foci),[12],"statistically significant, dose-dependent reduction"
same,reduction in caerulein-induced pathology in the pancreas,[13]; prophylactic: i.p. 30 min before the 1st caerulein injection,26%
same,reduction in caerulein-induced pathology in the pancreas,[13]; therapeutic: i.p. after the 3rd caerulein injection,35%
same,caerulein-induced serum amylase activity,[14],significant and dose-dependent reductions
same,caerulein-induced serum lipase activity,[14],significant and dose-dependent reductions
same,IC50,[15],895 nM
same,potency on Orai1-type CRAC channels compared to GSK-7975A,[16]; Compound I versus GSK-7975A,about 4 fold
same,IC50,[16],119 nM
"Cc1nc2cc(C)c(-c3cnc(NC(=O)c4c(F)ccc(F)c4F)s3)cc2o1 [Compound II, N-(5-(2,5-dimethylbenzo[d]oxazol-6-yl)thiazol-2-yl)-2,3,6-trifluorobenzamide]",effect on Amylase release,[6],mimicked EGTA
"O=C(Nc1ccn(Cc2ccc(O)cc2C(F)(F)F)n1)c1c(F)cccc1F [GSK-7975A, 2,6-Difluoro-N-(1-(4-hydroxy-2-(trifluoromethyl)benzyl)-1H-pyrazol-3-yl)benzamide, reference compound]","Calcium re-uptake, % of the control",[3],about 30%
same,total histopathology score,[17],substantially reduces
same,effect on Amylase release,[6],mimicked EGTA
same,activity at 0.7 µM,[7],50%
same,percent necrosis,[18],about 30%
same,percent necrosis,"[11]; TLCS plus 10 μM GSK-7975A, TLCS alone about 45%, no TLCS about 10%",about 23%
same,IC50,[15],1450 nM
same,IC50,[16],398 nM
